For ten compounds, GI50 and TGI results are on record in PubChem BioAssay (NCI).

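1) Cells in 96-well plates. 2) Compound, 48 h, 5 concentrations. 3) Linear interpolation between surrounding doses. 4) Unreached endpoint = highest concentration. Abbreviation: GI50, concentration required for 50% inhibition of growth. TGI marks complete inhibition of growth.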

Among the test systems are A549 NSCLC; K-562 leukemia; SK-MEL-5 melanoma; SF-539 CNS; SNB-75 CNS; HOP-92 NSCLC; UACC-257 melanoma; SF-268 CNS; DMS 273 small cell lung.
Common to all, as to assay: NCI tumour cell line growth inhibition, 48 h

Take `O=C1CSC(c2ccccc2O)N1c1nnc(Cn2ccnc2)o1` (configuration not stated): the GI50 was 35.5 µM in the experiment on A549 NSCLC; 4.36 µM with K-562 leukemia; 7.4 µM with SK-MEL-5 melanoma; 8.83 µM in the experiment with SF-539 CNS; 11.6 µM in the experiment on SNB-75 CNS; 2.23 µM in the experiment with HOP-92 NSCLC. Further, the GI50 is 16 µM in the experiment on UACC-257 melanoma and 10.8 µM in the experiment on SF-268 CNS. The TGI was > 100 µM in the experiment with A549 NSCLC; > 100 µM in the experiment on K-562 leukemia; 20.2 µM in the experiment on SK-MEL-5 melanoma; 68.5 µM with SF-539 CNS; > 100 µM in the experiment with SNB-75 CNS; 28.9 µM in the experiment on HOP-92 NSCLC. The TGI in the experiment on UACC-257 melanoma amounted to 40.6 µM; in the experiment on SF-268 CNS, 48 µM.
Turning to `COc1cc(/C=C/[N+](=O)[O-])cc(OC)c1OC`, the GI50 with A549 NSCLC was 4.42 µM; with K-562 leukemia, 2.81 µM; in the experiment on SK-MEL-5 melanoma it was 1.55 µM; with SF-539 CNS it was 2.19 µM; with SNB-75 CNS, 2.4 µM; in the experiment on HOP-92 NSCLC it was 2.25 µM. In addition, the GI50 in the experiment with UACC-257 melanoma was 2.46 µM; with SF-268 CNS, 4.39 µM. Also, the TGI is 19.4 µM in the experiment with A549 NSCLC; > 100 µM in the experiment with K-562 leukemia; 3 µM in the experiment with SK-MEL-5 melanoma; 4.36 µM in the experiment with SF-539 CNS; 6.11 µM with SNB-75 CNS; 6.52 µM in the experiment with HOP-92 NSCLC. For the same compound, the TGI with UACC-257 melanoma was 9.83 µM; with SF-268 CNS, 15.2 µM.
For `Oc1c(Cl)cc(Cl)c2cccnc12`, the GI50 is 3.49 µM in the experiment with A549 NSCLC; 3.77 µM with K-562 leukemia; 1.76 µM with SK-MEL-5 melanoma; 4.08 µM in the experiment with SF-539 CNS; 6.27 µM in the experiment with SNB-75 CNS; 2.8 µM in the experiment on HOP-92 NSCLC. Also, the GI50 in the experiment on UACC-257 melanoma is 2.26 µM; in the experiment on SF-268 CNS it was 3.39 µM. Further, the TGI in the experiment with A549 NSCLC is 29.6 µM; in the experiment with K-562 leukemia it was > 100 µM; in the experiment with SK-MEL-5 melanoma it was 3.59 µM; in the experiment on SF-539 CNS it was 71.1 µM; in the experiment with SNB-75 CNS, > 100 µM; in the experiment on HOP-92 NSCLC it was 26.3 µM. The TGI was 7.24 µM in the experiment with UACC-257 melanoma and > 100 µM in the experiment with SF-268 CNS.
Take `Cc1nc2c(sc(=S)n2-c2ccccc2)c2nc3ccccc3n12`: the TGI in the experiment with K-562 leukemia, in the experiment with DMS 273 small cell lung, in the experiment with SF-539 CNS, in the experiment with SNB-75 CNS, with UACC-257 melanoma and in the experiment with SF-268 CNS was > 100 µM each time.
In the case of `CC(=O)O.CC(=O)O.CC(=O)O.CC(=O)O.[Rh].[Rh]`, the GI50 was 28.6 µM in the experiment on A549 NSCLC; 18.5 µM in the experiment with K-562 leukemia; 18.6 µM in the experiment on SK-MEL-5 melanoma; 26.4 µM in the experiment on SF-539 CNS; 30.5 µM in the experiment with SNB-75 CNS; 25.5 µM in the experiment with HOP-92 NSCLC. Further, the figures for the GI50 in the experiment with UACC-257 melanoma and in the experiment with SF-268 CNS were 19.5 µM and 33.2 µM, respectively. Further, the TGI in the experiment on A549 NSCLC is > 100 µM; with K-562 leukemia, 56.2 µM; with SK-MEL-5 melanoma it was 37 µM; with SF-539 CNS, 88.4 µM; in the experiment with SNB-75 CNS it was > 100 µM; in the experiment on HOP-92 NSCLC it was 63.1 µM. Also, the results for the TGI with UACC-257 melanoma and in the experiment on SF-268 CNS were 64.8 µM and > 100 µM, respectively.
Take `COc1cc2c(c(OC)c1OC)-c1c(cc3c(c1OC)OCO3)CC(C)C(C)(O)C2OC(=O)c1ccccc1` (configuration not stated): the TGI is > 100 µM in the experiment with A549 NSCLC; > 100 µM in the experiment on K-562 leukemia; > 100 µM with SK-MEL-5 melanoma; > 100 µM with SF-539 CNS; > 100 µM with SNB-75 CNS; 73.7 µM in the experiment with HOP-92 NSCLC. For the same compound, the TGI with UACC-257 melanoma and in the experiment on SF-268 CNS was > 100 µM each time.
For the compound `O=C1/C(=C/c2cccc(Br)c2)COc2ccc(O)c(O)c21`, the GI50 was 1.83 µM in the experiment with A549 NSCLC; 0.387 µM in the experiment with K-562 leukemia; 1.63 µM with SK-MEL-5 melanoma; 1.58 µM in the experiment with SF-539 CNS; 0.933 µM in the experiment with SNB-75 CNS; 1.89 µM with HOP-92 NSCLC. Also, the GI50 with UACC-257 melanoma was 1.54 µM; in the experiment on SF-268 CNS, 1.63 µM. In addition, the TGI in the experiment on A549 NSCLC is 4.82 µM; with K-562 leukemia, 20.7 µM; with SK-MEL-5 melanoma it was 3.03 µM; in the experiment on SF-539 CNS it was 3.45 µM; in the experiment with SNB-75 CNS, 3.83 µM; with HOP-92 NSCLC it was 7.21 µM. Besides, the TGI was 3.03 µM in the experiment on UACC-257 melanoma and 4.08 µM in the experiment with SF-268 CNS.
Turning to `O=c1c(-c2ccccc2)coc2cc(OC/C(=N/O)c3ccc(F)cc3)ccc12`, the GI50 with A549 NSCLC is 13.6 µM; with K-562 leukemia it was 16.2 µM; in the experiment with SK-MEL-5 melanoma, 11.6 µM; in the experiment on SF-539 CNS, 15.2 µM; with SNB-75 CNS, 16.8 µM; in the experiment on HOP-92 NSCLC, 18.8 µM. The figures for the GI50 with UACC-257 melanoma and in the experiment with SF-268 CNS were 10.2 µM and 21.5 µM, respectively. In addition, the TGI in the experiment with A549 NSCLC is 35.9 µM; in the experiment with K-562 leukemia, > 100 µM; in the experiment on SK-MEL-5 melanoma, 23.9 µM; in the experiment with SF-539 CNS, 29.6 µM; in the experiment on SNB-75 CNS, 92.9 µM; in the experiment on HOP-92 NSCLC, 44.9 µM. Moreover, the figures for the TGI with UACC-257 melanoma and with SF-268 CNS were 27.3 µM and 50.6 µM, respectively.
Regarding `CCN(CC)CCCC(C)Nc1c(-c2ccccc2)cnc2cc(Cl)ccc12` (configuration not stated), the GI50 in the experiment with A549 NSCLC is 8.2 µM; with K-562 leukemia it was 3.2 µM; in the experiment with SK-MEL-5 melanoma, 1.74 µM; in the experiment with SF-539 CNS it was 4.36 µM; with SNB-75 CNS it was 13.7 µM; in the experiment with HOP-92 NSCLC it was 4.65 µM. Further, the figures for the GI50 with UACC-257 melanoma and with SF-268 CNS were 2.46 µM and 10.3 µM, respectively. Besides, the TGI came to 40.7 µM with A549 NSCLC; 32 µM in the experiment on K-562 leukemia; 3.64 µM with SK-MEL-5 melanoma; 16.3 µM in the experiment with SF-539 CNS; 45.3 µM with SNB-75 CNS; 23.7 µM in the experiment with HOP-92 NSCLC. In addition, the TGI with UACC-257 melanoma amounted to 6.28 µM; in the experiment on SF-268 CNS it was 27.3 µM.
Take `Cc1cc(NC(=O)c2cnc(N3CCN(CCOCCOCCOCCOCCC(=O)N[C@H](C(=O)N4C[C@H](O)C[C@H]4C(=O)N[C@@H](C)c4ccc(-c5scnc5C)cc4)C(C)(C)C)CC3)cn2)c2ncccc2c1`: the GI50 was 6.19 µM with A549 NSCLC; 3.1 µM in the experiment with K-562 leukemia; 2.36 µM with SK-MEL-5 melanoma; 2.12 µM in the experiment on SF-539 CNS; 2.1 µM in the experiment with SNB-75 CNS; 2.3 µM in the experiment with HOP-92 NSCLC. Further, the GI50 was 2.81 µM with UACC-257 melanoma and 3.02 µM in the experiment on SF-268 CNS. The TGI in the experiment on A549 NSCLC was > 100 µM; in the experiment with K-562 leukemia it was > 100 µM; in the experiment with SK-MEL-5 melanoma, 5.72 µM; in the experiment on SF-539 CNS, 4.68 µM; in the experiment with SNB-75 CNS it was 15 µM; in the experiment with HOP-92 NSCLC, 9.37 µM. Further, the TGI with UACC-257 melanoma worked out at 7.97 µM; in the experiment on SF-268 CNS, 18.3 µM.
